# Assay results reported in PMC5428881 (Chemical communications (Cambridge, England), 2011).
# Test system: HeLa cells
# Assay: Cell permeability by fluorescence activated cell sorting
# Assay type: cell-based
# Conditions: FACS, 10 μM N-terminally fluorescein-conjugated peptide, 2 versus 1
sequence,measurement,value
LTFCRYWARLCS [compound 2],increase in mean fluorescence (cell permeability),2.5 fold
